Holding throughout (format): cell-based
Test [1] relates to recombinant retrovirus of murine origin (MoMLV). In words: Residual virus (clones of βgal+ cells) after infection of mouse 3T3 test cells with LacZ recombinant MoMLV retrovirus. To be noted: 3T3 cells; for residual virus (% not inhibited) at 100 µM / residual virus (% not inhibited) at 10 µM / residual virus (% not inhibited) at 1 µM / residual virus (% not inhibited) at 0.1 µM: NIH3T3, 48 hours after infection, mean of several experiments, read-out: % of the residual virus (not inhibited by the product); for residual virus (% not inhibited) at 100 µM: 10^-4 M; for residual virus (% not inhibited) at 10 µM: 10^-5 M; for residual virus (% not inhibited) at 1 µM: 10^-6 M; for residual virus (% not inhibited) at 0.1 µM: 10^-7 M. As for the experimental part:
The virus used is a recombinant retrovirus of murine origin (MoMLV) in which a reporter gene (LacZ) has been introduced.
Fixed amounts of LacZ recombinant retroviruses are placed in the presence of mouse infectable test cells (3T3) with or without the product to be tested. To each recombinant retrovirus corresponds a clone of β gal^+ cells. The number of clones of βgal^+ cells is read 48 hours after the infection. The % of the residual virus (not inhibited by the product) is indicated in the following table (mean of several independent experiments): […]

Test [2] relates to HIV-1 virus. Briefly: Replication of HIV-1 in macrophages of sero-negative donors, continuous culture (reverse transcriptase activity). As for the experimental part:
(§1) The drugs 6651, AZT, 6714 and ddT were diluted in DMSO.
(§2) The virus HIV-1 utilized is derived from a culture supernatant of CEM-LAV 1 cells; these latter are maintained by the addition at each passage (every 3 or 4 days) of uninfected CEM cells. The titre of the virus in the clarified culture supernatant is higher than 10^6 cpm/ml in reverse transcriptase activity and 10^3 infectious units/ml on lymphocytes of sero-negative donors.
(§3) The macrophages were obtained from a deleucocytation pocket. The mononucleated cells were separated on a Ficoll^R gradient. The cells were adjusted to 50.10^6 cells/ml in the RPMI 1640 medium (MBA) containing 20% fetal calf serum (Flow), 10 mM Hepes (Sigma), 1% of PSN and 1% of glutamine (Gibco). After 1 h of incubation at 4° C. with gentle shaking, the macrophages agglutinate among themselves. The agglutinated macrophages are sedimented for 15 mn at 4° C. The supernatant containing an enrichment in lymphocytes was removed and the pellet enriched in macrophages was diluted to 5.10^6 cells/ml in the medium previously described. The cell suspension was then placed in Petri dishes of 60 mm diameter and placed at 37° C. for 1 h 30. The unattached cells are removed and the washed cell carpet was then detached with a scraper. The cells thus recovered were used directly for the study.
(§4) For this study, the production of HIV-1 virus by infected macrophages in the presence or absence of the drugs 6714 or ddT and 6651 or AZT were monitored either in continuous culture for at least 30 days or after lysis of the macrophages at day +14 and infection of lymphocytes by this lysate.
For each test, 15.10^6 cells were or were not infected with the HIV-1 virus (6000 cpm/10^6 cells). After 1 h of absorption at 37° C., the cells were placed in 6-wells Costar plates and 5.10^-5 M or 10^-5 M of the drugs 6714 and ddT and 10^-5 M, 10^-6 M or 10^-7 M of the drugs 6651 and AZT were added to the culture medium. The medium was changed every 3 or 4 days and the reverse transcriptase activity was determined in the culture supernatant. The drugs were added at each passage to the culture medium at the respective concentrations indicated above.
(§5) 3) Measurement of the reverse transcriptase activity
(§6) The reverse transcriptase activity is assayed starting from 1 ml of culture supernatant concentrated 100 times by ultra-centrifugation for 5 mn at 95.000 rpm (Rotor TL 100^R Beckman).
(§7) The pellet is resuspended in 10 μl of NTE Triton^R ×100 0.1%.
(§8) After 1 h at 37° C., the acid-insoluble products are precipitated by 20% trichloroacetic acid, filtered onto 0.45μ Millipore^R and the B radioactivity is measured with the aid of a Kontron scintillation counter.

The subject of test [3] is HIV-1 virus. Briefly: Infection of activated lymphocytes by the lysates of infected macrophages (co-culture, reverse transcriptase activity). The method, then:
as §1, §2
The lymphocytes were isolated from the peripheral blood of sero-negative donors on a Ficoll^R gradient (MSL, Eurobio). The lymphocytes thus obtained were stimulated with the phytohemaglutinin p(PHA-p) for 3 days before their utilization.
The lymphocytes are cultivated in RPMI 1640 medium, supplemented with 10% of fetal calf serum, 10% of interleukin 2, 2 μg/ml of polybrene, 1% of glutamine, 1% of antibiotics.
as §3, §4
The quantity of cells placed in culture and the conditions of infection are identical with those previously described.
At day 14 after infection, the macrophages were lysed by two successive freezings to -20° C. and thawings at 37° C. The lysate recovered was then utilized as inoculum to infect 3.10^6 activated lymphocytes derived from a sero-negative donor. After 1 h of absorption, the lymphocytes were adjusted to 10^6 cells per ml and the drugs were added at the concentrations corresponding to those of the lysate.
The lymphocytes were subcultured every 3 or 4 days and an assay of the reverse transcriptase was carried out starting from the culture supernatant at each passage.
as §5, §6, §7, §8

Each structure is given as a SMILES string.

Results on four compounds are retold here after patent publication US5393744A, “Glucosyl phosphotriesters of thymidine” (Institut Pasteur, priority 1988, dated 1995).

Regarding `Cc1cn([C@H]2C[C@H](N=[N+]=[N-])[C@@H](CO)O2)c(=O)[nH]c1=O` [AZT, 3'-azido 3'-deoxythymidine, reference compound], in test [1], the residual virus (% not inhibited) at 100 µM came out at 0%, the residual virus (% not inhibited) at 10 µM was 0%, the residual virus (% not inhibited) at 1 µM was determined as 0% and the residual virus (% not inhibited) at 0.1 µM was determined as 1%. In addition, in test [1] (recombinant MoMLV), the “retroviral activity (in words)” value is listed as “active by themselves”. Further, the “proliferation of the HIV-1 virus in the macrophages” value in the test on HIV-1 virus [2] (10^-5 M, 10^-6 M and 10^-7 M) was “block the proliferation of the HIV-1 virus in the macrophages”. In the test with HIV-1 virus [3] (10^-5 M, 10^-6 M and 10^-7 M (FIG. 4d)), the “viral production on the lymphocytes with the lysates of treated macrophages” value was “no viral production is obtained on the lymphocytes”. In the test on HIV-1 virus [3] (whatever the concentration tested, 10^-5 M, 10^-6 M and 10^-7 M), the “multiplication of the HIV-1 virus at the interior of the macrophage” value is listed as “there is no multiplication of the HIV-1 virus at the interior of the macrophage”.

Consider `Cc1cn([C@H]2CC[C@@H](CO)O2)c(=O)[nH]c1=O` [ddT, 3'-deoxy-thymidine, reference compound], for which, in test [1], the residual virus (% not inhibited) at 10 µM turned out to be 78%, the residual virus (% not inhibited) at 1 µM came to 87% and the residual virus (% not inhibited) at 0.1 µM came out at 101%. Moreover, the “proliferation of the HIV-1 virus in the macrophages” value in the test on HIV-1 virus [2] (5.10^-5 M and 10^-5 M) is “block the proliferation of the HIV-1 virus in the macrophages”. Further, the “viral production by activated lymphocytes” value in the test with HIV-1 virus [3] (5.10^-5 M) is “seems to be lower”. Also, in the test with HIV-1 virus [3] (10^-5 M), the “viral production by activated lymphocytes, compared to untreated lysate” value is given as “comparable to the untreated lysate”. Besides, the “viral production by activated lymphocytes with lysates of infected treated macrophages (general statement)” value with HIV-1 virus [3] (lysate at day 14) was “make it possible to obtain a vital production by activated lymphocytes”. In the test on HIV-1 virus [3] (whatever the concentration tested, 5.10^-6 M or 10^-5 M), the “multiplication of the HIV-1 virus in the macrophages” value is “there is multiplication of the HIV-1 virus in the macrophages, but the escape of the virus seems to be blocked”.

On to `CCCCCCCCCCCCCCCCOP(=O)(OCC1CCC(n2cc(C)c(=O)[nH]c2=O)O1)OCC1OC(O)C(O)C(O)C1O` (stereo not shown) [compound 6650, 6-glucosyl hexadecyl 5'-(3'-deoxy) thymidinyl], for which, in test [1], the residual virus (% not inhibited) at 10 µM was 79%, the residual virus (% not inhibited) at 1 µM amounted to 78% and the residual virus (% not inhibited) at 0.1 µM came to 96%.

As to `Cc1cn([C@H]2C[C@H](N=[N+]=[N-])[C@@H](COP(=O)(O)OC[C@H]3OC(O)[C@H](O)[C@@H](O)[C@@H]3O)O2)c(=O)[nH]c1=O` (stereo partly shown) [compound 6715, 6-glucosyl 5' (3'-azido)-thymidinyl phosphate], in test [1], the residual virus (% not inhibited) at 100 µM turned out to be 0%, the residual virus (% not inhibited) at 10 µM came out at 0% and the residual virus (% not inhibited) at 1 µM came to 3%.
